# Experimental data reported in US10350199B2, “3-(1h-pyrrolo[2,3-b]pyridin-2-yl)-1h-indazoles and therapeutic uses thereof” (Samumed, LLC, priority 2015, dated 2019).
# How the values were obtained:
# Type in all cases: cell-based
# [1] = test system: Wnt activity (Sp5-Luc reporter, SW480 colon carcinoma cells); experiment: Wnt activity screening assay, Sp5-Luc reporter gene in SW480 cells; conditions: Homo sapiens; for inhibition at 10 µM: SW480, read-out: percent inhibition at 10 μM; for EC50: Sp5-Luc reporter, SW480 cells, overnight incubation
# From the text: The screening assay for Wnt activity is described as follows. Reporter cell lines can be generated by stably transducing cancer cell lines (e.g., colon cancer) or primary cells (e.g., IEC-6 intestinal cells) with a lentiviral construct that includes a Wnt-responsive promoter driving expression of the firefly luciferase gene.
# SW480 colon carcinoma cells were transduced with a lentiviral vector expressing luciferase with a human Sp5 promoter consisting of a sequence of eight TCF/LEF binding sites. SW480 cells stably expressing the Sp5-Luc reporter gene and a hygromycin resistance gene were selected by treatment with 150 μg/mL of hygromycin for 7 days. These stably transduced SW480 cells were expanded in cell culture and used for all further screening activities. […] For Sp5-Luc reporter gene assays, the cells were plated at 4,000 cells/well in 384-well plates with medium containing 1% fetal bovine serum and incubated overnight at 37° C. and 5% CO2. Following incubation, 20 μl of BrightGlo luminescence reagent (Promega) was added to each well of the 384-well assay plates. The plates were placed on an orbital shaker for 2 min and then luminescence was quantified using the Envision (Perkin Elmer) plate reader. Readings were normalized to DMSO only treated cells, and normalized activities were utilized for EC50 calculations using the dose-response log (inhibitor) vs. response -variable slope (four parameters) nonlinear regression feature available in GraphPad Prism 5.0 (or Dotmatics).
# [2] = test system: IL-6 (THP-1 human monocyte cell line); experiment: IL-6 inhibition in LPS-stimulated THP-1 cells (HTRF); conditions: for EC50: IL-6 inhibition, LPS-stimulated THP-1 cells, HTRF; for inhibition at 10 µM: THP-1, read-out: percentage in parentheses beside EC50 >10 (IL-6 inhibition)
# Method: THP-1 cells were cultured in basal media with 1% FBS for 24 hours before the start of the assay. […] THP-1 cells were plated at 5000 cells/well in the 384-well plates and incubated at 37° C. for 2 h. 500 ng/mL of LPS was added after 2 hours and cells were incubated for another 22 hours at 37° C. Plates were spun in a centrifuge for 1 minute at […] and a mixture of anti-IL6 XL665, and anti-IL6 Cryptate diluted in reconstitution buffer (Cisbio Inc.) was added to each well. Following incubation for 3 hrs at room temperature, Homogeneous Time-Resolved Fluorescence (HTRF) was measured using the Envision (Perkin Elmer) at 665 nm and […]. The ratio of fluorescence at 665 nm to 620 nm was used as a readout for IL6 quantification. All samples were processed in duplicate. Readings were normalized to DMSO treated cells and normalized activities were utilized for EC50 calculations using the dose-response log (inhibitor) vs. response -variable slope (four parameters) nonlinear regression feature available in GraphPad Prism 5.0 (or Dotmatics).
# [3] = test system: primary human fibroblasts derived from IPF patients (LL29 cells) treated with TGF-β1; experiment: Inhibition of the fibrotic process: αSMA staining in TGF-β1 treated LL29 fibroblasts; conditions: Fibroblast; for EC50: 96 h, LL29 cells, TGF-β1 20 ng/mL, 4 days, % αSMA positive cells; for inhibition at 10 µM: read-out: percent inhibition at 10 μM
# Method: Representative compounds were screened using primary human fibroblasts (derived from IPF patients) treated with TGF-β1 to determine their ability to inhibit the fibrotic process.
# LL29 cells are plated at 1,500 cells/well in 80 μL/well F12 medium supplemented with 1% Fetal Bovine Serum. […] Wells treated with TGF-β1 and containing DMSO were used as controls. […] Following incubation for 4 days, SYTOX green nucleic acid stain (Life Technologies [Thermo Fisher Scientific]) was added to the wells at a final concentration of 1 μM and incubated at room temperature for 30 min.
# [4] = test system: SW480 colon cancer cells; experiment: Cell viability assay (CellTiter-Blue), SW480 cells, four days; conditions: Homo sapiens; for EC50: 96 h, SW480 cell viability, four days, CellTiter-Blue; for inhibition at 10 µM: SW480, read-out: percent inhibition at 10 μM
# Method: Representative compounds were screened using the following assay procedure to assess the effect on cell viability as described below.
# Approximately 2×10^3 SW480 colon cancer cells were seeded into each well and allowed to incubate in the presence or absence of compound for four days at 37° C./5% CO2. Eight replicates of DMSO-treated cells served as controls and cells treated with compound were performed in duplicate.
# After incubation, 20 μL of CellTiter-Blue (Promega) was added to each well allowed to incubate for approximately 3 hours. This reagent was a buffered solution which contains resazurin, metabolically active cells were able to reduce rezarurin (blue) into resorufin (pink) which was highly fluorescent. This measured fluorescence was used as a readout for cell viability.
SMILES,EC50 [1],EC50 [2],EC50 [4],inhibition at 10 µM [1],inhibition at 10 µM [2],EC50 [3],inhibition at 10 µM [3],inhibition at 10 µM [4]
"c1ccc(-c2ccc3[nH]nc(-c4cc5c(-c6ccoc6)ccnc5[nH]4)c3c2)nc1 [Compound 336, 3-(4-(Furan-3-yl)-1H-pyrrolo[2,3-b]pyridin-2-yl)-5-(pyridin-2-yl)-1H-indazole]",> 10000 nM,> 10000 nM,> 10000 nM,11%,45.1%,> 10000 nM,0%,0%
"CC(C)(C)C(=O)Nc1cncc(-c2ccc3[nH]nc(-c4cc5c(-c6cccs6)ccnc5[nH]4)c3c2)c1 [Compound 344, N-(5-(3-(4-(Thiophen-2-yl)-1H-pyrrolo[2,3-b]pyridin-2-yl)-1H-indazol-5-yl)pyridin-3-yl)pivalamide]",215 nM,53 nM,606 nM,–,–,> 10000 nM,0%,–
"c1ccc(-c2ccc3[nH]nc(-c4cc5c(-c6cccs6)ccnc5[nH]4)c3c2)nc1 [Compound 364, 5-(Pyridin-2-yl)-3-(4-(thiophen-2-yl)-1H-pyrrolo[2,3-b]pyridin-2-yl)-1H-indazole]",3380 nM,1570 nM,1140 nM,–,–,2200 nM,–,–
"Fc1ccc(-c2ccnc3[nH]c(-c4n[nH]c5ccc(C6=CCNCC6)cc45)cc23)cc1 [Compound 522, 3-(4-(4-Fluorophenyl)-1H-pyrrolo[2,3-b]pyridin-2-yl)-5-(1,2,3,6-tetrahydropyridin-4-yl)-1H-indazole]",3250 nM,> 10000 nM,> 10000 nM,–,48.7%,3860 nM,–,19.2%

# Second part, led by results:
EC50 [1],EC50 [2],EC50 [4],SMILES,inhibition at 10 µM [1],inhibition at 10 µM [2],EC50 [3],inhibition at 10 µM [3],inhibition at 10 µM [4]
332 nM,47 nM,747 nM,"CC(C)CC(=O)Nc1cncc(-c2ccc3[nH]nc(-c4cc5c(-c6cccs6)ccnc5[nH]4)c3c2)c1 [Compound 338, 3-Methyl-N-(5-(3-(4-(thiophen-2-yl)-1H-pyrrolo[2,3-b]pyridin-2-yl)-1H-indazol-5-yl)pyridin-3-yl)butanamide]",–,–,580 nM,–,–
3850 nM,91 nM,4640 nM,"CN(C)Cc1cncc(-c2ccc3[nH]nc(-c4cc5c(-c6cccs6)ccnc5[nH]4)c3c2)c1 [Compound 349, N,N-Dimethyl-1-(5-(3-(4-(thiophen-2-yl)-1H-pyrrolo[2,3-b]pyridin-2-yl)-1H-indazol-5-yl)pyridin-3-yl)methanamine]",–,–,874 nM,–,–
432 nM,73 nM,872 nM,"CC(C)(C)CC(=O)Nc1cncc(-c2ccc3[nH]nc(-c4cc5c(-c6cccs6)ccnc5[nH]4)c3c2)c1 [Compound 352, 3,3-Dimethyl-N-(5-(3-(4-(thiophen-2-yl)-1H-pyrrolo[2,3-b]pyridin-2-yl)-1H-indazol-5-yl)pyridin-3-yl)butanamide]",–,–,355 nM,–,–
40 nM,> 10000 nM,1300 nM,"CCCC(=O)Nc1cncc(-c2ccc3[nH]nc(-c4cc5c(-c6cccs6)ccnc5[nH]4)c3c2)c1 [Compound 353, N-(5-(3-(4-(Thiophen-2-yl)-1H-pyrrolo[2,3-b]pyridin-2-yl)-1H-indazol-5-yl)pyridin-3-yl)butyramide]",–,37.5%,5080 nM,–,–
> 10000 nM,> 10000 nM,> 10000 nM,"CN(C)CCOc1cncc(-c2ccc3[nH]nc(-c4cc5c(-c6ccc(F)cc6)ccnc5[nH]4)c3c2)c1 [Compound 531, 2-((5-(3-(4-(4-Fluorophenyl)-1H-pyrrolo[2,3-b]pyridin-2-yl)-1H-indazol-5-yl)pyridin-3-yl)oxy)-N,N-dimethylethan-1-amine]",2.3%,0%,> 10000 nM,15.6%,4.1%
